Reference: article doi:10.1101/2024.08.13.607785v1 (biorxiv, 2024)
Read-outs that look alike come from different tables or passages of the source. Values belong to the molecule of their own block, whether it stands above or below them.

Tests used:
Experiment in all cases: biochemical
Parameters in all cases: species or system human cell line lysate
[1] = target: Interleukin-1 receptor-associated kinase 4 ; IRAK4 ; Q9NWZ3 (Homo sapiens, UniProt Q9NWZ3)
[2] = target: Isoform CSBP1 of Mitogen-activated protein kinase 14 ; MAPK14 ; Q16539-2 (Homo sapiens, UniProt Q16539)
[3] = target: Serine/threonine-protein kinase MRCK gamma ; CDC42BPG ; Q6DT37 (Homo sapiens, UniProt Q6DT37)
[4] = target: Isoform 3 of Citron Rho-interacting kinase ; CIT ; O14578-3 (Homo sapiens, UniProt O14578)
[5] = target: Tyrosine-protein kinase Fyn ; FYN ; P06241 (Homo sapiens, UniProt P06241)
[6] = target: Pyridoxal kinase ; PDXK ; O00764 (Homo sapiens, UniProt O00764)
[7] = target: Protein kinase C delta type ; PRKCD ; Q05655 (Homo sapiens, UniProt Q05655)
[8] = target: Mitogen-activated protein kinase kinase kinase kinase 2 ; MAP4K2 ; Q12851 (Homo sapiens, UniProt Q12851)
[9] = target: Mitotic checkpoint serine/threonine-protein kinase BUB1 ; BUB1 ; O43683 (Homo sapiens, UniProt O43683)
[10] = target: Phosphorylase b kinase gamma catalytic chain, liver/testis isoform ; PHKG2 ; P15735 (Homo sapiens, UniProt P15735)
[11] = target: Isoform Delta 12 of Calcium/calmodulin-dependent protein kinase type I ; CAMK2D ; Q13557-12 (Homo sapiens, UniProt Q13557)
[12] = target: Phosphatidylinositol 4-phosphate 3-kinase C2 domain-containing subunit ; PIK3C2B ; O00750 (Homo sapiens, UniProt O00750)
[13] = target: Serine/threonine-protein kinase N2 ; PKN2 ; Q16513 (Homo sapiens, UniProt Q16513)
[14] = target: Isoform 3 of Membrane-associated tyrosine- and threonine-specific cdc2 ; PKMYT1 ; Q99640-3 (Homo sapiens, UniProt Q99640)
[15] = target: Focal adhesion kinase 1 ; PTK2 ; Q05397 (Homo sapiens, UniProt Q05397)
[16] = target: Tyrosine-protein kinase Fgr ; FGR ; P09769 (Homo sapiens, UniProt P09769)
[17] = target: Calcium/calmodulin-dependent protein kinase type II subunit delta ; CAMK2D ; Q13557 (Homo sapiens, UniProt Q13557)
[18] = target: Serine/threonine-protein kinase Chk1 ; CHEK1 ; O14757 (Homo sapiens, UniProt O14757)
[19] = target: Maternal embryonic leucine zipper kinase ; MELK ; Q14680 (Homo sapiens, UniProt Q14680)
[20] = target: Mitogen-activated protein kinase kinase kinase 15 ; MAP3K15 ; Q6ZN16 (Homo sapiens, UniProt Q6ZN16)
[21] = read-out: BAY-1251152 (10 µM) / %Intensity relative to DMSO
[22] = read-out: BAY-1143572 (10 µM) / %Intensity relative to DMSO

Mitotic checkpoint serine/threonine-protein kinase BUB1 ; BUB1 ; O43683, sequence (O43683 whole entry, canonical isoform, one chain of several): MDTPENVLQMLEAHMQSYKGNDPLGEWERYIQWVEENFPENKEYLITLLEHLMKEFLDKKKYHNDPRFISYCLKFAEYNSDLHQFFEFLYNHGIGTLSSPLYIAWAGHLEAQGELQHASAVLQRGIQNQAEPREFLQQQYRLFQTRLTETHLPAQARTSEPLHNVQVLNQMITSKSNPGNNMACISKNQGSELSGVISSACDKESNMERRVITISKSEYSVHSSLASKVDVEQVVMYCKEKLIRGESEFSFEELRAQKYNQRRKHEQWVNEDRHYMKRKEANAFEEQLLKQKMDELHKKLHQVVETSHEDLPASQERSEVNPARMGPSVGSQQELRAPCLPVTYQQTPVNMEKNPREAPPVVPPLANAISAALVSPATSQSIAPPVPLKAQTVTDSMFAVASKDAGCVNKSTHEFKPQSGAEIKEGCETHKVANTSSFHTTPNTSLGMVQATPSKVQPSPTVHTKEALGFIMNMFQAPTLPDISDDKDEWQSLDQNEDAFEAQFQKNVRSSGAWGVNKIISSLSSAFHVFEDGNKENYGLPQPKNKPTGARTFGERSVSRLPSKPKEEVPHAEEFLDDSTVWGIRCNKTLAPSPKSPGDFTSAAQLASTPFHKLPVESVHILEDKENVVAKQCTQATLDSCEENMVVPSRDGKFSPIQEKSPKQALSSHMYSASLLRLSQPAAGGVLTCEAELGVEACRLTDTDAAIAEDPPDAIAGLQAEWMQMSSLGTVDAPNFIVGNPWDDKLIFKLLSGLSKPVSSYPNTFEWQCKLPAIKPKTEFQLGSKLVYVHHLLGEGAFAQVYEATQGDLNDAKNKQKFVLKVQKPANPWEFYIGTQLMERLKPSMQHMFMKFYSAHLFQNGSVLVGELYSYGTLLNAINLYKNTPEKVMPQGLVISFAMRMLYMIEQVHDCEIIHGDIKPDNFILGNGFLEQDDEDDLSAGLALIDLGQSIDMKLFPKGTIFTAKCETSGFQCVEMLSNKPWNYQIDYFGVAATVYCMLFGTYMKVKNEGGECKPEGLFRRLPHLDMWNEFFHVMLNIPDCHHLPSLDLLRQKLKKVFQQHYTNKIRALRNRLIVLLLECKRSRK
Interleukin-1 receptor-associated kinase 4 ; IRAK4 ; Q9NWZ3, sequence (Q9NWZ3 whole entry, canonical isoform): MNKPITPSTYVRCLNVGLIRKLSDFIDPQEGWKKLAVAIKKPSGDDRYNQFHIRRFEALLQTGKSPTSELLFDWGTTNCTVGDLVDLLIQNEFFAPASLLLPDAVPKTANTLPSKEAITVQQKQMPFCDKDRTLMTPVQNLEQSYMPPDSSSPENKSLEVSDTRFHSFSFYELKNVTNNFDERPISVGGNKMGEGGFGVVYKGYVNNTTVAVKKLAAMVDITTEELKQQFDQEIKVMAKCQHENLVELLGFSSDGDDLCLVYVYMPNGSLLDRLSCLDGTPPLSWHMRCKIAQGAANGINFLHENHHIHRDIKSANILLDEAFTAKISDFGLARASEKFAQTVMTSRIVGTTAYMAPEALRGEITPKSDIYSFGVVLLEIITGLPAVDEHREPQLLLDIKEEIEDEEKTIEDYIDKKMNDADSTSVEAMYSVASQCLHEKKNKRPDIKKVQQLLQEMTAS
Phosphatidylinositol 4-phosphate 3-kinase C2 domain-containing subunit ; PIK3C2B ; O00750, sequence (O00750 whole entry, the tested form may be a part, one chain of several): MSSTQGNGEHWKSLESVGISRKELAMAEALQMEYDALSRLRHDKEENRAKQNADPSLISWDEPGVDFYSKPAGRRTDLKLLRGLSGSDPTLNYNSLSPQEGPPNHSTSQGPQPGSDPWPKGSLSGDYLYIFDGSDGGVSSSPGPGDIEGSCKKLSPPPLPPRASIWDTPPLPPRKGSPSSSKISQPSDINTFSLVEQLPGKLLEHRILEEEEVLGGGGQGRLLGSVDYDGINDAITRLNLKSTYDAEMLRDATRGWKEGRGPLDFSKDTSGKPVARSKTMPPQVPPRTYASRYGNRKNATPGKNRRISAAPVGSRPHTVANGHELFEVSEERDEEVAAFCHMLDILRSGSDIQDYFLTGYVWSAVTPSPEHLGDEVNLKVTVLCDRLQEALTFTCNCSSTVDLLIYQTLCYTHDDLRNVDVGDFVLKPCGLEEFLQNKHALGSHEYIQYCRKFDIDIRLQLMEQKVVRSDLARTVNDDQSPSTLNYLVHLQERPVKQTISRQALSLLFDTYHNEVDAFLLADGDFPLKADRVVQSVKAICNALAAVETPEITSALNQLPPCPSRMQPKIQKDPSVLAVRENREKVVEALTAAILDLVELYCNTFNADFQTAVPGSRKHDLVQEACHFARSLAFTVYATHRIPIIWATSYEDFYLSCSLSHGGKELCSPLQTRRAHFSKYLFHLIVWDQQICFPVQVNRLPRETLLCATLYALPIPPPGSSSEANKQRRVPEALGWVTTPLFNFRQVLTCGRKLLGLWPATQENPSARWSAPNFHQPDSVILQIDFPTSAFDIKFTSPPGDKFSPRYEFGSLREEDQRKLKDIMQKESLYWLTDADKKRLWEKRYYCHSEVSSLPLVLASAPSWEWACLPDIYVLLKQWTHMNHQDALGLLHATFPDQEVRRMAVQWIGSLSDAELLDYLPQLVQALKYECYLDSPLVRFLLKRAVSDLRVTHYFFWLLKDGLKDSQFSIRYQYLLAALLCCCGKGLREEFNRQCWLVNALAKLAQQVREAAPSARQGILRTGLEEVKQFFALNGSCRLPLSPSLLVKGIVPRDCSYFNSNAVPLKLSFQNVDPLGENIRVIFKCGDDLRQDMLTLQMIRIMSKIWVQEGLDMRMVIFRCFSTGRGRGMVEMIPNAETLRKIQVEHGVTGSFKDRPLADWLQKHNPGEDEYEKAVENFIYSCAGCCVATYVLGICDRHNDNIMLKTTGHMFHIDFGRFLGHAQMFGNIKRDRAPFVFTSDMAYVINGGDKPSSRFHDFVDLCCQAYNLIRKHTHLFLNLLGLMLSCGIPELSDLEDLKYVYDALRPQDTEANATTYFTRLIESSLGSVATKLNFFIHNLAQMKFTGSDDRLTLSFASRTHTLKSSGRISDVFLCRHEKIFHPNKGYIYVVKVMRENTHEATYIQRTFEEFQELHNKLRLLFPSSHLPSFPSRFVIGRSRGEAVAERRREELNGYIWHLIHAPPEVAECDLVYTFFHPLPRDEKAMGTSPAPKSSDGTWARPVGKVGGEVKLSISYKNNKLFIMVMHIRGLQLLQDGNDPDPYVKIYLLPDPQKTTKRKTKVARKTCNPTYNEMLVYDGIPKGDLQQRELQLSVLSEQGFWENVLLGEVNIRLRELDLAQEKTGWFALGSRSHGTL
Serine/threonine-protein kinase MRCK gamma ; CDC42BPG ; Q6DT37, sequence (Q6DT37 whole entry, canonical isoform, one chain of several): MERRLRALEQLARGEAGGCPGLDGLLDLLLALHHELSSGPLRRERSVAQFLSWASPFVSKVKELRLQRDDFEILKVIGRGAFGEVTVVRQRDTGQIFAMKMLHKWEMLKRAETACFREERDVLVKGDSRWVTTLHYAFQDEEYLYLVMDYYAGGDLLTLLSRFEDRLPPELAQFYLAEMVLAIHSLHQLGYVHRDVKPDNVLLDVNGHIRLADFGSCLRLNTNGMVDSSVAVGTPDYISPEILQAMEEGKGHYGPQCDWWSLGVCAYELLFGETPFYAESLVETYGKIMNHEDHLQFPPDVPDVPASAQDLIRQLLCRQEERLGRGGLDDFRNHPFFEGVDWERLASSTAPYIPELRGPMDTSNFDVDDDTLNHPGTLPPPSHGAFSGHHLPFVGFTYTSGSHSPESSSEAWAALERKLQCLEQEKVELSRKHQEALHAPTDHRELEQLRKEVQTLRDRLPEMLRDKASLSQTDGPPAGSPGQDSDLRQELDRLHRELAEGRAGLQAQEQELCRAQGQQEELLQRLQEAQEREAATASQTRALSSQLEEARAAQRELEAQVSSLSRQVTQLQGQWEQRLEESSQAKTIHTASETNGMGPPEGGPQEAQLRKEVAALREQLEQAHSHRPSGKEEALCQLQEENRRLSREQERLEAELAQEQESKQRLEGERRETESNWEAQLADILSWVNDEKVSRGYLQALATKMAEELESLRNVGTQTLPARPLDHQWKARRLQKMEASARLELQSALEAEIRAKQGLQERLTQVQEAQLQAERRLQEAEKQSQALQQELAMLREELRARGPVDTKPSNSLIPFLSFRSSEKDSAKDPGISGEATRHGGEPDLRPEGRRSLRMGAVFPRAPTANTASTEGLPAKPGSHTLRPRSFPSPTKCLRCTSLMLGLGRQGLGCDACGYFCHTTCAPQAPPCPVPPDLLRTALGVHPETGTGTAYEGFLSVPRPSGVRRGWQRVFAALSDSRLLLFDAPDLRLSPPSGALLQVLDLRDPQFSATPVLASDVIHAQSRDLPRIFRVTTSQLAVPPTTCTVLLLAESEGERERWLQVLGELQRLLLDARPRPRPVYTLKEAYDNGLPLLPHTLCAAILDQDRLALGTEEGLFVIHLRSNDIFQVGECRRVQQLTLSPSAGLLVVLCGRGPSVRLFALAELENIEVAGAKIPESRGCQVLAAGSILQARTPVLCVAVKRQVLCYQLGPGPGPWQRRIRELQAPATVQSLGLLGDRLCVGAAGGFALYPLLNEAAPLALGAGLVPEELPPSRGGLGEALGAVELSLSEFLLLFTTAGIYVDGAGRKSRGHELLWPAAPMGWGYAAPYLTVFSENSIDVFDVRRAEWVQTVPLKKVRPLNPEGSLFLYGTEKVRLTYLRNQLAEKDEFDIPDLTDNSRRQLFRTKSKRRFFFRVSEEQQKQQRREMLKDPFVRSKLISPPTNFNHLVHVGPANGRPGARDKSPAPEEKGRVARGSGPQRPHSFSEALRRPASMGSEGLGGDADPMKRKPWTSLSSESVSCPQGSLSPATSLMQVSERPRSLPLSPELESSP
Isoform CSBP1 of Mitogen-activated protein kinase 14 ; MAPK14 ; Q16539-2, sequence (Q16539 whole entry, canonical isoform): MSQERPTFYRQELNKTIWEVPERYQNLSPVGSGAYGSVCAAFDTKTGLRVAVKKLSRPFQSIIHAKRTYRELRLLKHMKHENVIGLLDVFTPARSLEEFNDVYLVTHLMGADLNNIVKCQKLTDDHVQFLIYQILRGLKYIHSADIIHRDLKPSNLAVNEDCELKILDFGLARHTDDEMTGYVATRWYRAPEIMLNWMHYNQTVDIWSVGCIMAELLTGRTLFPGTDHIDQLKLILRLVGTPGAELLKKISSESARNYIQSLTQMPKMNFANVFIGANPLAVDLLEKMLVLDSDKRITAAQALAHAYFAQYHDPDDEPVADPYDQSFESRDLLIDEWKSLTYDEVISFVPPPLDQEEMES

remaining activity at 10 µM [1, 21]: 112%
remaining activity at 10 µM [2, 21]: 120%
remaining activity at 10 µM [3, 21]: 103%
remaining activity at 10 µM [4, 21]: 89.3%
remaining activity at 10 µM [5, 21]: 103%
remaining activity at 10 µM [6, 21]: 119%
remaining activity at 10 µM [7, 21]: 97.3%
remaining activity at 10 µM [8, 21]: 73.8%
remaining activity at 10 µM [9, 21]: 106%
remaining activity at 10 µM [10, 21]: 100%
remaining activity at 10 µM [11, 21]: 106%
remaining activity at 10 µM [12, 21]: 84.6%
remaining activity at 10 µM [13, 21]: 222%
remaining activity at 10 µM [14, 21]: 107%
remaining activity at 10 µM [15, 21]: 99.3%
remaining activity at 10 µM [16, 21]: 97.1%
remaining activity at 10 µM [17, 21]: 90.9%
remaining activity at 10 µM [18, 21]: 110%
remaining activity at 10 µM [19, 21]: 110%
remaining activity at 10 µM [20, 21]: 95%
Compound: COc1cc(F)ccc1-c1cc(Nc2cc(CS(C)(=N)=O)ccn2)ncc1F (stereo not shown) [BAY-1251152]

remaining activity at 10 µM [1, 22]: 121%
remaining activity at 10 µM [2, 22]: 133%
remaining activity at 10 µM [3, 22]: 102%
remaining activity at 10 µM [4, 22]: 99.1%
remaining activity at 10 µM [5, 22]: 92.2%
remaining activity at 10 µM [6, 22]: 139%
remaining activity at 10 µM [7, 22]: 97.1%
remaining activity at 10 µM [8, 22]: 106%
remaining activity at 10 µM [9, 22]: 109%
remaining activity at 10 µM [10, 22]: 107%
remaining activity at 10 µM [11, 22]: 124%
remaining activity at 10 µM [12, 22]: 79.7%
remaining activity at 10 µM [13, 22]: 222%
remaining activity at 10 µM [14, 22]: 117%
remaining activity at 10 µM [15, 22]: 102%
remaining activity at 10 µM [16, 22]: 96.5%
remaining activity at 10 µM [17, 22]: 94.4%
remaining activity at 10 µM [18, 22]: 106%
remaining activity at 10 µM [19, 22]: 116%
remaining activity at 10 µM [20, 22]: 91.7%
Compound: COc1cc(F)ccc1-c1ncnc(Nc2cccc(C[S@](C)(=N)=O)c2)n1 [BAY-1143572]
